Test results reported in US11485728B2, “Small molecules for the treatment of autoimmune diseases and cancer” (Athos Therapeutics, Inc., priority 2020, dated 2022).

Columns and labels:
[1] = In-vitro half-life in human liver microsomes; assay type: in vitro ADME; settings: Human liver microsomes 0.5 mg/mL; 1 μg/mL drug; NRS; read-out: Metabolic Half-life
Procedure: In each of the species (human, rat, mouse) of liver matrix to be tested, a working concentration of 2 μg/mL was prepared of each test article from the 0.5 mg/mL DMSO stock solution by adding 3 μL of 0.5 mg/mL test article stock solution to 747 μL of the 1 mg/mL liver matrix. Incubation was performed at 37±2° C. with gentle, continuous mixing in shaking water bath in 2.0 mL-well capacity 96-Deepwell plates (96-DWP). Samples were retrieved in duplicate at the following time points: 0, 5, 10, 15, 30 and 60 minutes. The final mixture contained 1 μg/mL of drug and 0.5 mg/mL of liver matrix. First, 50 μL of test articles in liver matrix was added to the 96-DWP and pre-warmed the mixture in the 96-DWP for 2 minutes in the 37° C. water bath. The enzymatic reaction was started by the addition of 50 μL of the corresponding 2× NADPH regenerating system (NRS) cofactor solution to all sample wells and stopped by the addition of 300 μL of stop solution (acetonitrile containing 10 ng/mL Tolbutamide as an internal standard (I.Std.). The samples were agitated for 10 minutes and then centrifuged for 20 minutes at 4500 rpm. 25 μL of supernatant was diluted with 475 μL acetonitrile containing I. Std. into a new 96-DWPs for LC-MS/MS analysis.
Half-life calculations were generated and calculated by Graphpad Prism® software. The half-life of test compound was calculated based on the first-order reaction kinetics. The data was transformed to linear regression (y=log(y) where “y” axis represents the % compound remaining at any given time with respect to time 0 minutes; “x” axis represents time in minutes) in order to calculate the half-life.
A comparison of metabolic stability in time-course incubation experiments in varying species of liver can provide information of pharmacokinetic properties of drugs attributable to species-related differences in hepatic metabolism. The results of these experiments often assist in further applications such as assessing in vitro metabolite profiling and choosing relevant species for toxicology studies based on similarities relative to the metabolic stability to the human profile. For these experiments, the test compound was tested in parallel with a positive control, Dasatinab, in an enzymatic reaction solution of each species (human and rat) of liver microsomes containing a NADPH regenerating system (NRS). The final mixture contained 1 μg/mL of drug and 0.5 mg/mL of liver matrix. Incubations were performed at 37±2° C. with gentle, continuous mixing in shaking water bath in 96-Deep well plates. The stability of the test compound is monitored using fast, specific and sensitive LC/MS/MS analysis.

CYP2C8 = target: T1, CYP2C8 (Homo sapiens, UniProt P10632); assay: CYP-direct inhibition, CYP2C8; assay type: in vitro ADME
T1 construct: from tissue; host or cells: pooled human liver microsomes
T1 sequence (P10632 1-490): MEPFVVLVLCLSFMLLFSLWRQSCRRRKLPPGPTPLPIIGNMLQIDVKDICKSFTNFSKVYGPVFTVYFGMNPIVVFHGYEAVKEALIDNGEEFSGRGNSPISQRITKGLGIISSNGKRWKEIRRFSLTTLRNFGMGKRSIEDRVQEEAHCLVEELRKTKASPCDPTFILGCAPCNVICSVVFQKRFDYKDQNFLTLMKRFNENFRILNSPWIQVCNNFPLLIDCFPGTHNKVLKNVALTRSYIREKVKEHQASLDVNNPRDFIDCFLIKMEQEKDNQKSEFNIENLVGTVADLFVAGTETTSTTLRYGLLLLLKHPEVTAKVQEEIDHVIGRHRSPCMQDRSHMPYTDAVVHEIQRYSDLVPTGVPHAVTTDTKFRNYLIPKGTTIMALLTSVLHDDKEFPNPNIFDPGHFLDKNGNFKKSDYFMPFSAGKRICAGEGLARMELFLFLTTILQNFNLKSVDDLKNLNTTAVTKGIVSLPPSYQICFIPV
Procedure: Many drugs inhibit cytochrome P450 enzymes to cause clinically significant changes in the pharmacokinetics of other drugs. In vitro cytochrome P450 inhibition, can provide crucial information in evaluating potential clinical drug-drug interactions and is useful for focusing in vivo tests to areas of concern. The cytochrome P450 inhibition assay was developed by preparing a working cocktail solution consisting of six probe substrates 10 μM ethoxy-resorufin (CYP1A2), 100 μM rosiglitazone (CYP2C8), 50 μM diclofenac (CYP2C9), 300 μM S-mephenytoin (CYP2C19), 50 μM dextromethorphan (CYP2D6), and 20 μM midazolam (CYP3A4). A mixture solution consists of 140 uL of 0.286 mg/mL of pooled human liver microsome working solution and 20 uL working solutions of test articles, standard control inhibitors, or positive control placebo and 20 uL of substrate cocktail mixture working solution was prepared. The mixture solution was pre-warm in a gentle shaking bath at 37±2° C. for 5 minutes. The enzymatic reaction started by adding 20 uL of NRS working solution to the mixture solution and incubated for 10 minutes at 37±2° C. To stop the reaction, an addition of 400 μL cold stop solution (acetonitrile containing 50 ng/mL Tolbutamide as an internal standard (I.Std.) was added to the mixture solution. The final concentration of test article, inhibitors, substrates, and cofactors are noted in Table 0.1 below. Two individual samples were prepared for each test compound. The extracted samples were vortexed and then centrifuged at 4500 rpm for 7 minutes using Eppendorf Centrifuge 5910R. 200 uL of supernatant was diluting with 200 uL of 50% Methanol into 96-DW plate for LC/MS/MS analysis
Concentration-response plots are used to determine the effects of an inhibitor on an enzymatic reaction. A typical concentration-response plot provides fractional activity (Y axis) is plotted as a function of log inhibitor concentration (X axis). The data are fitted using a standard Sigmoidal dose-response equation which is also called a […] logistic equation. The concentration of compound that results in 50% inhibition of maximal activity is termed as the IC50 (inhibitor concentration yielding 50% inhibition). IC50 value is calculated using Prism GraphPad software, version 9. […].
Cytochrome P450 inhibition of a drug is a key factor in determining pharmacokinetic drug-drug interactions. The objective of this study was to evaluate the inhibition potential of G9a inhibitors on six (6) major human cytochrome P450 enzymes, including CYP1A2, CYP2C8, CYP2C9, CYP2C19, CYP2D6, and CYP3A4. Inhibition was determined by using a substrate cocktail and analyzing the rate of specific metabolites formation. The cytochrome P450 inhibition assay was developed using a cocktail consisting of six (6) probe substrates ethoxy-resorufin (CYP1A2), rosiglitazone (CYP2C8), diclofenac (CYP2C9), S-mephenytoin (CYP2C19), dextromethorphan (CYP2D6), and midazolam (CYP3A4). The cocktail was incubated in human liver microsome with NADPH regenerating system (NRS) in a shaking bath at 37±2° C. The formation of specific metabolites was monitored by LC/MS/MS. Test compound was added to the cocktail-liver microsome mixture at varying concentrations and its effect on cytochrome P450 activity was determined by analyzing the rate of specific metabolite formation. The percent inhibition was calculated and plotted with reference to the concentration, and the IC50 value for inhibition was derived by fitting the data with a using log(inhibitor) vs. normalized response with variable slope least squares fit by Graphpad Prism® software. […].

Compound	half-life at 1 μg/mL [1] [h]	IC50 (CYP2C8) [µM]
COc1cc2c(NC3CCS(=O)(=O)CC3)nc(N3CCC(F)(F)CC3)nc2cc1OCCCN1CCCC1 [Compound 1, 4-((2-(4,4-difluoropiperidin-1-yl)-6-methoxy-7-(3-(pyrrolidin-1-yl)propoxy)quinazolin-4-yl)amino)tetrahydro-2H-thiopyran 1,1-dioxide]	> 1	89.1
COc1cc2c(NC3CCNCC3)nc(N3CCC(F)(F)CC3)nc2cc1OCCCN1CCCC1 [Compound 8, 2-(4,4-difluoropiperidin-1-yl)-6-methoxy-N-(piperidin-4-yl)-7-(3-(pyrrolidin-1-yl)propoxy)quinazolin-4-amine]	> 1	> 100
COc1cc2c(NCC(N)=O)nc(N3CCC(F)(F)CC3)nc2cc1OCCCN1CCCC1 [Compound 9, 2-((2-(4,4-difluoropiperidin-1-yl)-6-methoxy-7-(3-(pyrrolidin-1-yl)propoxy)quinazolin-4-yl)amino)acetamide]	> 1	> 100
COc1cc2c(NC3CCS(=O)(=O)CC3)nc(N3CCS(=O)(=O)CC3)nc2cc1OCCCN1CCCC1 [Compound 103, 4-(4-((1,1-dioxidotetrahydro-2H-thiopyran-4-yl)amino)-6-methoxy-7-(3-(pyrrolidin-1-yl)propoxy)quinazolin-2-yl)thiomorpholine 1,1-dioxide]	> 1	> 100
COc1cc2c(NC3CCS(=O)(=O)CC3)nc(N3CCN(C)CC3)nc2cc1OCCCN1CCCC1 [Compound 109, 4-((6-methoxy-2-(4-methylpiperazin-1-yl)-7-(3-(pyrrolidin-1-yl)propoxy)quinazolin-4-yl)amino)tetrahydro-2H-thiopyran 1,1-dioxide]	0.342	> 100
COc1cc2c(NC3CCS(=O)(=O)CC3)nc(N3CCCN(C)CC3)nc2cc1OCCCN1CCCC1 [Compound 110, 4-((6-methoxy-2-(4-methyl-1,4-diazepan-1-yl)-7-(3-(pyrrolidin-1-yl)propoxy)quinazolin-4-yl)amino)tetrahydro-2H-thiopyran 1,1-dioxide]	> 1	> 100

The next lines start with the values.

half-life at 1 μg/mL [1] [h]	IC50 (CYP2C8) [µM]	Compound
> 1	20.4	COc1cc2c(NC3CCOCC3)nc(N3CCC(F)(F)CC3)nc2cc1OCCCN1CCCC1 [Compound 2, 2-(4,4-difluoropiperidin-1-yl)-6-methoxy-7-(3-(pyrrolidin-1-yl)propoxy)-N-(tetrahydro-2H-pyran-4-yl)quinazolin-4-amine]
> 1	> 100	COCCN1CCC(Nc2nc(N3CCC(F)(F)CC3)nc3cc(OCCCN4CCCC4)c(OC)cc23)CC1 [Compound 3, 2-(4,4-difluoropiperidin-1-yl)-6-methoxy-N-(1-(2-methoxyethyl)piperidin-4-yl)-7-(3-(pyrrolidin-1-yl)propoxy)quinazolin-4-amine]
> 1	27.4	COCCNc1nc(N2CCC(F)(F)CC2)nc2cc(OCCCN3CCCC3)c(OC)cc12 [Compound 4, 2-(4,4-difluoropiperidin-1-yl)-6-methoxy-N-(2-methoxyethyl)-7-(3-(pyrrolidin-1-yl)propoxy)quinazolin-4-amine]
> 1	> 100	COc1cc2c(NCC3CCN(C)CC3)nc(N3CCC(F)(F)CC3)nc2cc1OCCCN1CCCC1 [Compound 5, 2-(4,4-difluoropiperidin-1-yl)-6-methoxy-N-((1-methylpiperidin-4-yl)methyl)-7-(3-(pyrrolidin-1-yl)propoxy)quinazolin-4-amine]
> 1	75.7	COc1cc2c(Nc3ccncc3)nc(N3CCC(F)(F)CC3)nc2cc1OCCCN1CCCC1 [Compound 7, 2-(4,4-difluoropiperidin-1-yl)-6-methoxy-N-(pyridin-4-yl)-7-(3-(pyrrolidin-1-yl)propoxy)quinazolin-4-amine]
> 1	16	COc1cc2c(NC3COC3)nc(N3CCC(F)(F)CC3)nc2cc1OCCCN1CCCC1 [Compound 11, 2-(4,4-difluoropiperidin-1-yl)-6-methoxy-N-(oxetan-3-yl)-7-(3-(pyrrolidin-1-yl)propoxy)quinazolin-4-amine]
> 1	23.4	COc1cc2c(NC3CCS(=O)(=O)CC3)nc(N3CCCC3)nc2cc1OCCCN1CCCC1 [Compound 80, 4-((6-methoxy-2-(pyrrolidin-1-yl)-7-(3-(pyrrolidin-1-yl)propoxy)quinazolin-4-yl)amino)tetrahydro-2H-thiopyran 1,1-dioxide]
> 1	60.6	COc1cc2c(NC3CCS(=O)(=O)CC3)nc(N3CCOCC3)nc2cc1OCCCN1CCCC1 [Compound 102, 4-((6-methoxy-2-morpholino-7-(3-(pyrrolidin-1-yl)propoxy)quinazolin-4-yl)amino)tetrahydro-2H-thiopyran 1,1-dioxide]
> 1	4.66	COc1cc2c(Nc3ccncc3)nc(-n3ccnc3)nc2cc1OCCCN1CCCC1 [Compound 130, 2-(1H-imidazol-1-yl)-6-methoxy-N-(pyridin-4-yl)-7-(3-(pyrrolidin-1-yl)propoxy)quinazolin-4-amine]
